Assay results reported in PubChem BioAssay (NCI).
“And” between values parts separate entries of the source, which are not always exact repeats. Equal values may be shown once.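 Grown in 96-well plates, cells were treated for 48 hours with each compound at five concentrations. Insufficient inhibition: endpoint recorded as highest concentration tested. GI50: concentration for 50% inhibition of growth. TGI: concentration producing complete growth inhibition.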

Assays:
Test in all cases: NCI tumour cell line growth inhibition, 48 h
[1] = tested on: LOX IMVI melanoma
[2] = tested on: BT-549 breast
[3] = tested on: CCRF-CEM leukemia
[4] = tested on: EKVX NSCLC
[5] = tested on: TK-10 renal
[6] = tested on: NCI-H226 lung
[7] = tested on: UACC-62 melanoma
[8] = tested on: OVCAR-8 ovarian
[9] = tested on: 786-0 renal
[10] = tested on: NCI-H23 lung

Row | SMILES | TGI [1] | TGI [2] | TGI [3] | TGI [4] | TGI [5] | TGI [6] | TGI [7] | TGI [8] | TGI [9] | TGI [10] | GI50 [1] | GI50 [2] | GI50 [4] [µM] | GI50 [5] | GI50 [6] | GI50 [7] | GI50 [8] | GI50 [9] | GI50 [3] [µM] | GI50 [10]
1 | COc1c2occc2c(N)c2ccc(=O)oc12 | > 100 µM | > 100 µM | > 100 µM | > 100 µM | > 100 µM | > 100 µM | > 100 µM | > 100 µM | > 100 µM | > 100 µM | – | – | – | – | – | – | – | – | – | –
2 | O=c1[nH]c(O)c(C=Nc2ccc(-c3nc4ccccc4o3)cc2)c(=O)[nH]1 | 58.9 µM | > 100 µM | – | > 100 µM | > 100 µM | > 100 µM | > 100 µM | > 100 µM | > 100 µM | – | 25.3 µM | > 100 µM | > 100 | 40.6 µM | 90.3 µM | 35.6 µM | 25.8 µM | 32.9 µM | – | –
3 | COc1cc2c(cc1OCCCN1CCN(CCCOc3cc4c(cc3OC)C(=O)N3CC(F)(F)C[C@H]3C=N4)CC1)N=C[C@@H]1CC(F)(F)CN1C2=O | 4.83 µM | 5.36 µM | 8.51 µM | > 100 µM | 12.9 µM | 39.8 µM | 13.2 µM | 26.7 µM | 10.8 µM | 16.8 µM | 1.89 µM | 1.95 µM | 29.1 | 4.38 µM | 14 µM | 3.05 µM | 6.3 µM | 3.17 µM | 0.979 | 4.55 µM
4 | Nc1nc(Cl)nc2c1ncn2C1CC(O)C(CO)O1 (stereo unspecified) | 30.6 µM | > 100 µM | 11.5 µM | 34.5 µM | > 100 µM | 62.5 µM | 6.15 µM | > 100 µM | > 100 µM | 4.78 µM | – | 0.345 µM | – | 50.2 µM | – | – | – | 2.45 µM | – | –
5 | CCSc1nc(N=Cc2ccccc2O)c2cn[nH]c2n1 | > 100 µM | > 100 µM | – | > 100 µM | 36.6 µM | 73.9 µM | 54.7 µM | > 100 µM | > 100 µM | 34.9 µM | 30.1 µM | 40.6 µM | 47.2 | 9.67 µM | 17.9 µM | 16.4 µM | 48.8 µM | 41.8 µM | – | 15.2 µM
6 | CCn1cc(-c2ccnc3[nH]c(-c4cccc(CN(C)C)c4)cc23)c(-c2ccc(NC(=O)N(C)C)cc2)n1 | 1.88 µM and 5.2 µM | 17.3 µM and > 10 µM | 51.6 µM | > 10 µM | 26 µM and > 10 µM | 16.2 µM and > 10 µM | 22.5 µM and > 10 µM | 23 µM and > 10 µM | 20.3 µM and > 10 µM | 17.2 µM and > 10 µM | 0.297 µM and 0.239 µM | 1.45 µM and 2.3 µM | 3.87 | 6.77 µM and 1.67 µM | 0.25 µM and 0.451 µM | 2.49 µM and 5.74 µM | 3.33 µM and 3.61 µM | 2.79 µM and 2.59 µM | < 0.01 | 2.1 µM and 2.45 µM
7 | O=c1cccc(C#CC#C[C@@H]2O[C@H]2CO)o1 | 1.73 µM | 3.73 µM | – | 3.43 µM | 3.38 µM | 1.4 µM | 1.1 µM | 3.12 µM | 1.43 µM | 0.45 µM | 0.797 µM | 2 µM | 1.79 | 1.47 µM | 0.627 µM | 0.477 µM | 1.03 µM | 0.626 µM | 0.192 | 0.23 µM
8 | CN(C)CCN1CCC(Cc2ccccc2)CC1 | > 80 µM | > 80 µM | > 80 µM | > 80 µM | > 80 µM | > 80 µM | > 80 µM | > 80 µM | > 80 µM | > 80 µM | > 80 µM | > 80 µM | > 80 | > 80 µM | > 80 µM | > 80 µM | > 80 µM | > 80 µM | > 80 | > 80 µM
9 | O=[N+]([O-])c1cccnc1N=Nc1c(O)[nH]c2ccccc12 | 25.7 µM | 25.4 µM | – | 66 µM | 40.8 µM | > 100 µM | 23 µM | > 100 µM | 52 µM | – | – | – | – | – | – | – | – | – | – | –
10 | Cc1cc(C(=O)CSC(=S)SC(C)(C)C)ccc1Cl | 45 µM | 53.1 µM | – | 56.8 µM | 60 µM | 42.7 µM | 30.1 µM | > 100 µM | 74.4 µM | > 100 µM | – | – | – | – | – | – | – | – | – | –
11 | COc1ccc(-c2c(C#N)c(N3CCOCC3)nc3[nH]c(=S)[nH]c(=S)c23)cc1OC | 60.9 µM | > 100 µM | > 100 µM | > 100 µM | > 100 µM | 89.6 µM | 76.1 µM | > 100 µM | > 100 µM | > 100 µM | 16.7 µM | 32.2 µM | > 100 | 34.5 µM | 18.8 µM | 20.1 µM | 34.5 µM | 30.7 µM | 41.3 | 20.9 µM
12 | CCOC(=O)c1c(C)c2c(n1Cc1ccccc1)CSCC2=O | 50.9 µM | 77.6 µM | > 100 µM | > 100 µM | 81.4 µM | 89.1 µM | 29.9 µM | > 100 µM | 63.1 µM | 63.8 µM | 14.8 µM | 21 µM | 16.3 | 27.3 µM | 20.2 µM | 10.3 µM | 27.6 µM | 24.1 µM | 29.9 | 17.2 µM
13 | NNc1ncnc2nc[nH]c12 | > 100 µM | > 94.3 µM | > 100 µM | > 100 µM | > 100 µM | > 100 µM | 39.9 µM | > 100 µM | > 83.8 µM | > 100 µM | 2.89 µM | 4.22 µM | 7.17 | 2.94 µM | 5.88 µM | 3.05 µM | 5.09 µM | 3.03 µM | 2.97 | 10.1 µM
14 | CCCCNCCCNCCCNC(=O)c1csc(-c2csc(CCNC(=O)C(NC(=O)C(C)C(O)C(C)NC(=O)C(NC(=O)c3nc(C(CC(N)=O)NCC(N)C(N)=O)nc(N)c3C)C(OC3OC(CO)C(O)C(O)C3OC3OC(CO)C(O)C(OC(N)=O)C3O)c3cnc[nH]3)C(C)O)n2)n1 (stereo unspecified) | 7.15 µM and 6.49 µM | > 50 µM | 50 µM and > 100 µM | > 50 µM and 61.8 µM | > 50 µM and 58.2 µM | – | 11.8 µM and 4.8 µM | 12.1 µM and 40.4 µM | 50 µM and 5.24 µM | 7.42 µM and 2.2 µM | 0.194 µM | – | > 50 | > 50 µM | 0.477 µM | 0.68 µM | 0.908 µM | 1.46 µM | 6.4 | 0.269 µM
